Data taken from patent publication US4880922A, “Carbapenems with quaternized heterothioalkylthio substitution at position 2” (Bristol-Myers Company, priority 1985, dated 1989).
≈ marks a conversion by molar mass, not a printed value.

Assays:
[1] = test system: Str. faecalis; test: In vitro antibacterial activity, MIC by tube dilution; assay type: cell-based; settings: Enterococcus faecalis, Nutrient Broth, overnight, 37° C.
[2] = test system: Ent. cloacae; test: as above; assay type: cell-based; settings: Enterobacter cloacae, Nutrient Broth, overnight, 37° C.
[3] = test system: Pr. vulgaris; test: as above; assay type: cell-based; settings: Proteus vulgaris, Nutrient Broth, overnight, 37° C.
[4] = Urinary recovery after intramuscular administration to mice; assay type: in vivo; settings: mouse, urine, im, 20 mg/kg, 0-24 hours after administration, 0.1 M phosphate buffer pH 7, single test, 4 mice, read-out: Urinary recovery, Percentage of Dose Recovered
Description: (§1) Compounds were solubilized in 0.1 M phosphate buffer pH 7. Values are fro
(§2) a single test; 4 mice per compound.

[5] = test system: Pr. morganii; test: In vitro antibacterial activity, MIC by tube dilution; assay type: cell-based; settings: Morganella morganii, Nutrient Broth, overnight, 37° C.
[6] = test system: Ps. aeruginosa; test: Protective effect in the intramuscular treatment of infected mice; assay type: in vivo; settings: Pseudomonas aeruginosa, im, I.M., column of the in vitro table, read-out: PD50 I.M.
Method: The in vivo therapeutic efficacy of the compound of Example 1 after intramuscular administration to mice experimentally infected with various organisms are shown in the following Table. The PD50 (dose in mg/kg required to give protection to 50% of the infected mice) is indicated.
Treatment Schedule: Mice were treated i.m. with drugs 0 and 2 hours

[7] = test system: Str. pyogenes; test: In vitro antibacterial activity, MIC by tube dilution; assay type: cell-based; settings: Streptococcus pyogenes, Nutrient Broth, overnight, 37° C.
[8] = test system: Pr. mirabilis; test: as above; assay type: cell-based; settings: Proteus mirabilis, Nutrient Broth, overnight, 37° C.
[9] = test system: Ser. marcescens; test: as above; assay type: cell-based; settings: Serratia marcescens, Nutrient Broth, overnight, 37° C.
[10] = test system: Str. pneumoniae; test: as above; assay type: cell-based; settings: Streptococcus pneumoniae, Nutrient Broth, overnight, 37° C.
[11] = test system: E. coli; test: as above; assay type: cell-based; settings: Escherichia coli, Nutrient Broth, overnight, 37° C.
[12] = test system: Ps. (Carb-R); test: as above; assay type: cell-based; settings: Nutrient Broth, overnight, 37° C.
[13] = test system: K. pneumoniae; test: as above; assay type: cell-based; settings: Klebsiella pneumoniae, Nutrient Broth, overnight, 37° C.
[14] = test system: Staph. aureus (Pen-R); test: as above; assay type: cell-based; settings: Staphylococcus aureus, Nutrient Broth, overnight, 37° C.
[15] = test system: Ps. aeruginosa; test: as above; assay type: cell-based; settings: Pseudomonas aeruginosa, Nutrient Broth, overnight, 37° C.
[16] = test system: Pr. rettgeri; test: as above; assay type: cell-based; settings: Providencia rettgeri, Nutrient Broth, overnight, 37° C.
[17] = Blood levels in mice after intramuscular administration; assay type: in vivo; settings: mouse, im, 20 mg/kg
Description: as §1, §2

[18] = test system: Staph. aureus; test: In vitro antibacterial activity, MIC by tube dilution; assay type: cell-based; settings: Staphylococcus aureus, Nutrient Broth, overnight, 37° C.

C[C@@H](O)[C@H]1C(=O)N2C(C(=O)[O-])=C(SCCSc3cccc[n+]3C)C[C@H]12 [Example 1, (5R,6S) 6-(1R-hydroxyethyl)-3-[(1-methylpyridinium-2-yl)-2-thioethylthio]-7-oxo-1-azabicyclo (3.2.0)hept-2-ene-2-carboxylate]
MIC [1]: 0.13 µg/mL (≈ 0.342 µM) | MIC ([2]; first line (strain not named)): 0.06 µg/mL (≈ 0.158 µM) | MIC ([2]; second line (strain not named)): 0.13 µg/mL (≈ 0.342 µM) | MIC [3]: 0.016 µg/mL (≈ 0.0421 µM) | dose excreted at 24 h [4]: 31.5% | MIC [5]: 0.06 µg/mL (≈ 0.158 µM) | ED50 [6]: 2.9 mg/kg | MIC [7]: 0.0005 µg/mL (≈ 0.00131 µM) | MIC [8]: 0.016 µg/mL (≈ 0.0421 µM) | MIC [9]: 0.03 µg/mL (≈ 0.0788 µM) | MIC [10]: 0.0005 µg/mL (≈ 0.00131 µM) | MIC ([11]; first line (strain not named)): 0.008 µg/mL (≈ 0.021 µM) | MIC ([11]; second line (strain not named)): 0.016 µg/mL (≈ 0.0421 µM) | MIC [12]: 2 µg/mL (≈ 5.26 µM) | MIC ([13]; first line (strain not named)): 0.03 µg/mL (≈ 0.0788 µM) | MIC ([13]; second line (strain not named)): 0.06 µg/mL (≈ 0.158 µM) | MIC [14]: 0.004 µg/mL (≈ 0.0105 µM) | MIC [15]: 8 µg/mL (≈ 21 µM) | MIC [16]: 0.13 µg/mL (≈ 0.342 µM) | AUC [17]: 4100 ng·h/mL | concentration at 10 min ([17]; 10 min after administration, read-out: Blood Level): 11100 ng/mL | concentration at 20 min ([17]; 20 min after administration, read-out: Blood Level): 8000 ng/mL | concentration at 0.5 h ([17]; 30 min after administration, read-out: Blood Level): 3600 ng/mL | concentration at 0.75 h ([17]; 45 min after administration, read-out: Blood Level): 1000 ng/mL | concentration at 1 h ([17]; 60 min after administration, read-out: Blood Level): < 300 ng/mL | concentration at 1.5 h ([17]; 90 min after administration, read-out: Blood Level): < 300 ng/mL | half-life ([17]; read-out: t1/2 (half-life)): 8 min | MIC ([18]; Staph. aureus + 50% serum): 0.008 µg/mL | MIC ([18]; Staph. aureus): 0.004 µg/mL (≈ 0.0105 µM)
